Experimental findings from patent US3948933A, “Pyrrolo[1,2-c]imidazolediones” (priority 1973, dated 1976) are described below.

Series [1] has as its system secondary conditioned response. Briefly: inhibition of the secondary conditioned response in rats (anxiolytic and tranquilizing properties). The format is in vivo. Particulars: 60 mg/kg i.p. As to the method: (§1) The depressant activity of the new pyrroloimidazole-diones on the C.N.S. of animals is evidenced by testing the compounds in mice according to the Irwin method. The tranquilizing and anxiolytic activity is evaluated on the basis of the secondary conditioned response in rats.

The subject of another series is C.N.S. Briefly: Irwin test (Irwin method) in mice, depressant activity on the C.N.S. Particulars: Mus musculus, ip. The class given is in vivo. Here is the method: as §1
In experiments in mice with the representative compound α-2-(o-chlorophenyl)-5,6,7,7a-tetrahydro-1,3(2H)-dioxo-1H-pyrrolo[1,2-c]imidazolo-5-carboxylic acid, the following ED50 values were determined for parameters of the Irwin test which are related to sedative and hypnotic activities.

Series [2] in a line: acute toxicity (LD50) in mice. The settings on record: mouse, in vivo, ip.

The structures appear in SMILES notation. Where two headings read alike, the source gives them in different places.

Regarding `CCN(CC)C(=O)C1CCC2C(=O)N(c3cccc(Cl)c3)C(=O)N12` (stereo not drawn) [Example 13, α-5-diethylcarbamyl-2-(m-chlorophenyl)-5,6,7,7a-tetrahydro-1H-pyrrolo[1,2-c]imidazole-1,3(2H)-dione], in series [1], the Deconditioned/Conditioned was 7/10. As to `O=C(O)C1CCC2C(=O)N(c3ccccc3Cl)C(=O)N12` (stereo not drawn) [α-2-(o-chlorophenyl)-5,6,7,7a-tetrahydro-1,3(2H)-dioxo-1H-pyrrolo[1,2-c]imidazolo-5-carboxylic acid], the ED50 stood at 100 mg/kg in the series on C.N.S. (read-out: ED50, Impairment of motor coordination); 200 mg/kg with C.N.S. (read-out: ED50, Minimal hypnotic dose); 80 mg/kg in the series on C.N.S. (read-out: ED50, Righting reflex); 100 mg/kg in the series on C.N.S. (read-out: ED50, Spontaneous activity). The compound also showed an LD50 in series [2] of approximately 700 mg/kg. As to `CCNC(=O)C1CCC2C(=O)N(c3ccccc3)C(=O)N12` (stereo not drawn) [Example 14, α-5-ethylcarbamyl-2-phenyl-5,6,7,7a-tetrahydro-1H-pyrrolo[1,2-c]imidazole-1,3(2H)-dione], the Deconditioned/Conditioned in series [1] is 7/10. For `CCN(CC)C(=O)C1CCC2C(=O)N(c3cccc(C(F)(F)F)c3)C(=O)N12` (centres unmarked) [Example 37, 5-diethylcarbamyl-2-(m-trifluoromethyl)phenyl-5,6,7,7a-tetrahydro-1H-pyrrolo-[1,2-c]imidazole-1,3(2H)-dione], in series [1], the Deconditioned/Conditioned is 10/10. For the compound `CCN(CC)C(=O)C1CCC2C(=O)N(c3ccccc3)C(=O)N12` (single isomer, unassigned) [Example 21, α(+)-5-diethylcarbamyl-2-phenyl-5,6,7,7a-tetrahydro-1H-pyrrolo[1,2-c]imidazole-1,3(2H)-dione], the Deconditioned/Conditioned in series [1] (60 mg/kg) is 7/10.

Consider `CCN(CC)C(=O)C1CCC2C(=O)N(c3ccccc3)C(=O)N12` (single isomer, unassigned) [Example 22, α(-)-5-diethylcarbamyl-2-phenyl-5,6,7,7a-tetrahydro-1H-pyrrolo[1,2-c]imidazole-1,3(2H)-dione], for which the Deconditioned/Conditioned in series [1] (60 mg/kg) is on record as 6/10. Take `CCN(CC)C(=O)C1CCC2C(=O)N(c3ccccc3)C(=O)N12` (stereo not drawn) [Example 12, α-5-diethylcarbamyl-2-phenyl-5,6,7,7a-tetrahydro-1H-pyrrolo[1,2-c]imidazole-1,3(2H)-dione]: the Deconditioned/Conditioned in series [1] is 8/10.
